Key:
histones H3 and H4 = test: acetylated histone Western (HDAC assay) in U937 cells; format: cell-based, human; settings: 1 mM SB, 100 nM FP
Protocol: Histone Deacetylase (HDAC) Assay. Acid extraction of proteins from treated cells and detection of acetylated histones H3 and H4 by Western blot analysis was performed per the manufacturer's instructions (Upstate Biotechnology). 10 μg of extract was loaded per lane and separated on pre-cast 4-20% Biorad Gradient Gels.

[1] = system: U937 human leukemia cells; test: morphological assessment of apoptosis (Wright and Giemsa-stained cytospin); format: cell-based
From the text: (§1) Cell culture. The myelomonocytic leukemia cell line U937 was derived from a patient with histiocytic lymphoma and was obtained from American Type Culture Collection. The HL-60 cell line was derived from a patient with acute promyelocytic leukemia as previously described [Grant et al. 1992]. U937 and HL-60 cells were maintained in logarithmic growth phase by culturing in suspension in phenol red-free RPMI-1640 (Life Technologies, Inc., Grand Island, N.Y.) and 10% (v/v) fetal calf serum (Hyclone, Logan, Utah), in a humidified atmosphere (95% air/5% CO2) at 37° C. To obtain antisense-expressing cell lines, U937 cells were transfected by electroporation with a pREP4 vector (Invitrogen; Carlsbad, Calif.) or the pREP4 vector containing the p21^WAF1/CIP1 coding region in an antisense orientation as previously described [Wang et al. 1999]. […]
(§2) Morphological assessment of apoptosis. U937 cells were evaluated for apoptosis by morphological assessment of Wright and Giemsa-stained cytospin preparations. At designated times, cells were transferred to slides by cytocentrifugation, fixed, stained, and evaluated under light microscopy for treatment-induced apoptosis. […] Five or more randomly selected fields, encompassing a total≧500 cells/slide, were evaluated to determine the percentage of apoptotic cells for each treatment condition.

[2] = system: HL-60 human promyelocytic leukemia cells; test: morphological assessment of apoptosis; format: cell-based; settings: 3, 5, or 10 μM ATRA, 80 nM FP
From the text: as §1, §2

ERK1/2 = test: Western analysis of phosphorylated p44/p42 MAPK in U937 cells; format: cell-based, human; settings: 10 nM PMA, 100 nM FP, 30 min-6 h
Protocol: Western analysis. Equal quantities of protein (15 μg/condition for MAPK, 40 μg/condition for cytochrome c, or 25 μg/condition) were separated by SDS-PAGE [underphosporylated pRB (7.5%), poly(ADP-ribose)polymerase or PARP (8.0%), p44/p42 MAPK (10%), p21, p27, procaspase 3 (12%), and cytochrome c (15%)] and electroblotted onto nitrocellulose. Western analysis of p44/p42 MAPK protein was performed according to the manufacturer's instructions (New England Biolabs); otherwise, studies were performed as previously described [Wang et al, 1998]. Briefly, U937 cells (5×10^6) were pelleted by centrifugation, resuspended in 50 μl PBS, lysed by the addition of 2× Laemmli buffer and boiled for 5 min. Proteins were quantified with Coomassie protein assay reagent. Blots were blocked in PBS-T/5% milk, washed twice with PBS-T, and incubated overnight at 4° C. with the appropriate primary antibody. The blots were washed with PBS-T and incubated with a horseradish-peroxidase conjugated secondary antibody diluted appropriately in PBS-T/5% mill. Following incubation, blots were developed by enhanced chemiluminescence exposure to Kodak X-OMAT film (Eastman Kodak Co., Rochester, N.Y.) and reprobed with antibodies directed against actin to control for equal loading of protein.

XIAP = test: Western analysis of XIAP in U937 cells; format: cell-based, human; settings: FP 100 nM, SB 1 mM
Protocol: Alternatively, whole cell-pellets were washed twice in PBS, resuspended in PBS, and lysed by the addition of I volume of loading buffer. Lysates were boiled for 10 min, centrifuged at 12,800 g for 5 min and quantified using Coomassie protein assay reagent (Pierce, Rockfold, Ill.). 25 μg of total proteins per point were separated by SDS-PAGE and electro-blotted to nitrocellulose. The blots were blocked in 5% non-fat milk in PBS-T and probed for 1 h with the appropriate dilution of primary antibody. Blots were washed 3×10 min in PBS-T and then incubated with a 1:2000 dilution of peroxidase-conjugated secondary antibody for 1 h at room temperature. Blots were again washed 3×10 min in PBS-T and then developed by enhanced chemiluminesence. Where indicated, blots were stripped and re-probed with antibodies directed against actin. […]

CCCC(=O)[O-].[Na+] [SB, sodium butyrate]
acetylation of histones H3 and H4 (histones H3 and H4): Acetylation of H3 and H4 was observed

CN1CC[C@H](c2c(O)cc(O)c3c(=O)cc(-c4ccccc4Cl)oc23)[C@H](O)C1 [FP, Flavopiridol]
percentage of apoptotic cells ([1]; FP concentrations ≦100 nM, regardless of treatment interval (6-24 h)): ≤ 10% | induction of apoptosis ([1]; FP concentrations ≧200 nM, chronic exposures (12 or 24 h)): susceptible to apoptosis | % apoptosis [2]: minimal effect | phosphorylation (activation) of ERK1/2 (ERK1/2): modestly increased ERK activation | levels of XIAP (XIAP): modest decreases
